In PubChem BioAssay (NCI):
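Step 1: Grow cells in 96-well plates. Step 2: Expose to compound for 48 hours at 5 concentrations. Step 3: Interpolate endpoints linearly; if unreached, use highest concentration. GI50 marks 50% less growth. TGI is the concentration that stops growth completely.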

Key:
Test in all cases: growth of human tumour cells (NCI), 48 h
SW-620 colon = system: SW-620 colon
SK-MEL-28 melanoma = system: SK-MEL-28 melanoma
OVCAR-8 ovarian = system: OVCAR-8 ovarian
RPMI-8226 leukemia = system: RPMI-8226 leukemia
IGROV1 ovarian = system: IGROV1 ovarian
SK-OV-3 ovarian = system: SK-OV-3 ovarian
UACC-257 melanoma = system: UACC-257 melanoma
SF-268 CNS = system: SF-268 CNS
HCT-116 colon = system: HCT-116 colon
MOLT-4 leukemia = system: MOLT-4 leukemia

Row | Structure (SMILES) | TGI (SW-620 colon) | TGI (SK-MEL-28 melanoma) | TGI (OVCAR-8 ovarian) | TGI (RPMI-8226 leukemia) | TGI (IGROV1 ovarian) | TGI (SK-OV-3 ovarian) | TGI (UACC-257 melanoma) | TGI (SF-268 CNS) | TGI (HCT-116 colon) | TGI (MOLT-4 leukemia) | GI50 (MOLT-4 leukemia) | GI50 (SW-620 colon) | GI50 (SK-MEL-28 melanoma) | GI50 (RPMI-8226 leukemia) | GI50 (SK-OV-3 ovarian) | GI50 (UACC-257 melanoma) | GI50 (SF-268 CNS) | GI50 (HCT-116 colon) | GI50 (IGROV1 ovarian) | GI50 (OVCAR-8 ovarian)
1 | COc1cc([C@H]2OC[C@H]3[C@@H]2CO[C@@H]3c2cc(OC)c3c(c2)OCO3)cc(OC)c1OC | > 100 µM | > 100 µM | > 100 µM | > 100 µM | > 100 µM | > 100 µM | > 100 µM | > 100 µM | > 100 µM | – | – | – | – | – | – | – | – | – | – | –
2 | COc1ccc(C2=NN(c3ccccc3)C[N+](c3ccc(OC)cc3)=N2)cc1 | 61 µM | > 100 µM | > 100 µM | 67.5 µM | > 100 µM | – | > 100 µM | > 100 µM | > 100 µM | 90.7 µM | – | – | – | – | – | – | – | – | – | –
3 | Cc1ccc(Nc2nc(C)c(C(/C=C/c3ccc(/C=C/C(=N/NC(=O)C[n+]4ccccc4)c4sc(Nc5ccc(C)cc5[N+](=O)[O-])nc4C)cc3)=N\NC(=O)C[n+]3ccccc3)s2)c([N+](=O)[O-])c1 | > 100 µM | > 100 µM | > 100 µM | – | > 100 µM | > 100 µM | > 100 µM | > 100 µM | > 100 µM | > 100 µM | – | – | – | – | – | – | – | – | – | –
4 | C=C1c2[nH]c3c([N+](=O)[O-])c(OC)ccc3c2CCN1C(C)=O | > 100 µM | > 100 µM | > 100 µM | > 100 µM | > 100 µM | – | > 100 µM | > 100 µM | > 100 µM | > 100 µM | – | – | – | – | – | – | – | – | – | –
5 | [N-]=[N+]=NC(CI)c1cn([C@H]2C[C@H](O)[C@@H](CO)O2)c(=O)[nH]c1=O (stereo partly drawn) | > 100 µM | > 100 µM | > 100 µM | > 100 µM | > 100 µM | > 100 µM | – | – | > 100 µM | > 100 µM | – | – | – | – | – | – | – | – | – | –
6 | C/C=C(/C)C(=O)O[C@H](C[C@@H](C)[C@H]1CC(c2ccoc2)OC1=O)[C@@]1(C)C(=O)CCC2O[C@]21C (stereo partly drawn) | > 100 µM | > 100 µM | > 100 µM | > 100 µM | > 100 µM | > 100 µM | > 100 µM | – | > 100 µM | > 100 µM | – | – | – | – | – | – | – | – | – | –
7 | O=C1CC(S(=O)(=O)O)C=C1Nc1cccc(Cl)c1 (stereo not drawn) | > 100 µM | > 100 µM | > 100 µM | – | > 100 µM | > 100 µM | > 100 µM | > 100 µM | > 100 µM | > 100 µM | – | – | – | – | – | – | – | – | – | –
8 | Cc1ccc(CNc2c3ccccc3nc3cc(NC(=O)CCN4CCCC4)ccc23)cc1 | 1.58 µM | 3.09 µM | – | 1.94 µM | – | 2.79 µM | 3.27 µM | 2.31 µM | 1.42 µM | 1.32 µM | 0.316 µM | 0.413 µM | 1.66 µM | 0.412 µM | 1.1 µM | 1.69 µM | 0.819 µM | 0.39 µM | – | –
9 | CN1c2ccccc2N(C)C23N(C)c4ccccc4N(C)C12N(C)c1ccccc1N3C (stereo not drawn) | > 100 µM | > 100 µM | > 100 µM | – | > 100 µM | – | > 100 µM | > 100 µM | > 100 µM | > 100 µM | – | – | – | – | – | – | – | – | – | –
10 | CCc1ccc(NC(=O)COC(=O)c2cc([N+](=O)[O-])ccc2Sc2nnnn2C)cc1 | 31.5 µM | 28.8 µM | – | 41.4 µM | 95.7 µM | > 100 µM | 61.2 µM | 70.7 µM | 20.2 µM | 81.6 µM | 20.3 µM | 10.9 µM | 9.94 µM | 6.73 µM | 27.1 µM | 19.3 µM | 14.5 µM | 6.76 µM | 24.3 µM | –
11 | Clc1nc(Cl)c2ncn(C/C=C/COc3cccc(OC/C=C/Cn4cnc5c(Cl)nc(Cl)nc54)c3)c2n1 | > 100 µM | > 100 µM | > 100 µM | > 100 µM | > 100 µM | > 100 µM | > 100 µM | > 100 µM | – | > 100 µM | 26.5 µM | > 100 µM | > 100 µM | 25.3 µM | > 100 µM | > 100 µM | > 100 µM | – | > 100 µM | > 100 µM
12 | COc1ccc2ccccc2c1C1OC(=O)c2ccccc21 (stereo not drawn) | > 100 µM | – | > 100 µM | > 100 µM | > 100 µM | > 100 µM | > 100 µM | > 100 µM | – | > 100 µM | – | – | – | – | – | – | – | – | – | –
13 | CCCOC(=O)N1CCN(/[N+]([O-])=N/Oc2ccc([N+](=O)[O-])cc2[N+](=O)[O-])CC1 | – | 39.4 µM | 72.8 µM | 2.41 µM | 4.05 µM | – | 24.2 µM | 11.1 µM | 1.17 µM | > 100 µM | 2.35 µM | – | 6.04 µM | 0.49 µM | – | 9.52 µM | 3.19 µM | 0.301 µM | 1.3 µM | 9.35 µM
14 | O=C(Nc1ccc(Cl)c(Cl)c1)O/N=C\c1c(Cl)ccc([N+](=O)[O-])c1Cl | – | 4.22 µM | 8.47 µM | 4.3 µM | 4.57 µM | 17.6 µM | 2.86 µM | 9.63 µM | 3.25 µM | 5.46 µM | 2.23 µM | – | 2.1 µM | 1.62 µM | 5.82 µM | 1.46 µM | 2.81 µM | 1.49 µM | 2.08 µM | 2.62 µM
15 | COc1cc(C2C(Cl)C(=O)N2NC(=O)c2ccc(N)cc2)ccc1O (stereo not drawn) | 35.2 µM | > 100 µM | 47.4 µM | > 100 µM | > 100 µM | > 100 µM | > 100 µM | – | 47.9 µM | 60.3 µM | – | – | – | – | – | – | – | – | – | –
16 | COc1ccc(C(C#N)Cc2cc(OC)c(OC)c(OC)c2)cc1 (stereo not drawn) | > 100 µM | > 100 µM | > 100 µM | > 100 µM | > 100 µM | – | > 100 µM | > 100 µM | > 100 µM | > 100 µM | – | – | – | – | – | – | – | – | – | –
17 | NC(=O)c1c(NC(=O)c2ccc3c(c2)OCO3)sc2c1CCC(=O)C2 | – | > 100 µM | > 100 µM | 1.6 µM | – | – | – | > 100 µM | – | – | – | – | 3 µM | 0.339 µM | – | – | 1.88 µM | – | – | 1.75 µM
18 | Cc1ccccc1NC(=O)C(=O)CC(=O)c1c(C)n([O-])c2ccccc2[n+]1=O | > 100 µM | > 100 µM | > 100 µM | > 100 µM | > 100 µM | > 100 µM | > 100 µM | > 100 µM | > 100 µM | – | – | – | – | – | – | – | – | – | – | –
19 | Cc1ccc(C)c(NC(=O)CC/C(=N\NC(=O)c2c(O)ccc3ccccc23)C(C)C(=O)c2ccc(O)cc2)c1 (stereo not drawn) | > 100 µM | > 100 µM | 75.9 µM | > 100 µM | > 100 µM | – | 87.1 µM | > 100 µM | > 100 µM | > 100 µM | – | – | – | – | – | – | – | – | – | –
